From US6448266B1, “Substituted cyclobutylamine derivatives” (Daiichi Pharmaceutical Co., Ltd., priority 1997, dated 2002)
≈ marks a conversion by molar mass, not a printed value. Where two headings read alike, the source gives them in different places.

Legend:
Assay in all cases: Antibacterial activity (MIC), standard method of the Japan Society of Chemotherapy
Assay type in all cases: cell-based
E. coli, NIHJ = tested on: E. coli, NIHJ
Method: (§1) The antibacterial activity of each compound of the present invention was measured in accordance with the standard method specified by the Japan Society of Chemotherapy, with the results shown in the following table as MIC values (μg/ml).

Pr. mirabilis, IFO-3849 = tested on: Pr. mirabilis, IFO-3849
Method: as §1

Pr. vulgaris, 08601 = tested on: Pr. vulgaris, 08601
Method: as §1

Ps. aeruginasa, 32121 = tested on: Ps. aeruginasa, 32121
Method: as §1

Ps. aeruginosa, 32104 = tested on: Ps. aeruginosa, 32104
Method: as §1

S. aureus, 209P = tested on: S. aureus, 209P
Method: as §1

S. aureus, 870307 = tested on: S. aureus, 870307
Method: as §1

S. epidermidis, 56500 = tested on: S. epidermidis, 56500
Method: as §1

S. flexneli, 2A 5503 = tested on: S. flexneli, 2A 5503
Method: as §1

S. maltophilia, IID-1275 = tested on: S. maltophilia, IID-1275
Method: as §1

S. pneumoniae, J24 = tested on: S. pneumoniae, J24
Method: as §1

Ser. marcescens, 10100 = tested on: Ser. marcescens, 10100
Method: as §1

[1] = tested on: Str. faecalis, ATCC-19433
Method: as §1

Str. pyogenes, G-36 = tested on: Str. pyogenes, G-36
Method: as §1

[2] = Escherichia coli, read-out: MIC
[3] = Proteus mirabilis, IFO3849, read-out: MIC
[4] = Proteus vulgaris, read-out: MIC
[5] = Pseudomonas aeruginosa, read-out: MIC
[6] = Staphylococcus aureus, read-out: MIC
[7] = Staphylococcus epidermidis, read-out: MIC
[8] = Stenotrophomonas maltophilia, IID1275, read-out: MIC
[9] = Streptococcus pneumoniae, read-out: MIC
[10] = Serratia marcescens, read-out: MIC
[11] = Enterococcus faecalis, ATCC19433, read-out: MIC
[12] = Streptococcus pyogenes, G36, read-out: MIC

Compound	MIC (E. coli, NIHJ; [2])	MIC (Pr. mirabilis, IFO-3849; [3])	MIC (Pr. vulgaris, 08601; [4])	MIC (Ps. aeruginasa, 32121; read-out: MIC)	MIC (Ps. aeruginosa, 32104; [5])	MIC (S. aureus, 209P; [6])	MIC (S. aureus, 870307; [6])	MIC (S. epidermidis, 56500; [7])	MIC (S. flexneli, 2A 5503)	MIC (S. maltophilia, IID-1275; [8])	MIC (S. pneumoniae, J24; [9])	MIC (Ser. marcescens, 10100; [10])	MIC [1, 11]	MIC (Str. pyogenes, G-36; [12])	MIC (E. coli, NIHJ)	MIC (Pr. mirabilis, IFO-3849)	MIC (Pr. vulgaris, 08601)	MIC (Ps. aeruginasa, 32121)	MIC (Ps. aeruginosa, 32104)	MIC (S. aureus, 209P)	further results
COc1c(N2CCC(C3(N)CC(F)C3)C2)c(F)cc2c(=O)c(C(=O)O)cn([C@@H]3C[C@@H]3F)c12 (stereo partly drawn) [Inventive Example 6, 7-[3-(3-Amino-1-fluoro-cyclobutan-3-yl)-pyrrolidin-1-yl]-6-fluoro-1-[2-(S)-fluoro-1-(R)-cyclopropyl]-8-methoxy-1,4-dihydro-4-oxoquinoline-3-carboxylic acid]	≤ 0.003 µg/mL	0.05 µg/mL (≈ 0.111 µM)	0.025 µg/mL (≈ 0.0554 µM)	0.2 µg/mL (≈ 0.443 µM)	0.39 µg/mL (≈ 0.864 µM)	≤ 0.003 µg/mL	0.025 µg/mL (≈ 0.0554 µM)	0.006 µg/mL (≈ 0.0133 µM)	0.013 µg/mL (≈ 0.0288 µM)	0.2 µg/mL (≈ 0.443 µM)	≤ 0.003 µg/mL	0.1 µg/mL (≈ 0.222 µM)	0.025 µg/mL (≈ 0.0554 µM)	0.006 µg/mL (≈ 0.0133 µM)	–	–	–	–	–	–	–
Cc1c(N2CCC(C3(N)CC(F)(F)C3)C2)c(F)c(N)c2c(=O)c(C(=O)O)cn([C@@H]3C[C@@H]3F)c12 (stereo partly drawn) [Inventive Example 5, 5-Amino-7-[3-(3-amino-1,1-difluorocyclobutan-3-yl)pyrrolidin-1-yl]-6-fluoro-1-[2-(S)-fluoro-1-(R)-cyclopropyl]-8-methyl-1,4-dihydro-4-oxoguinoline-3-carboxylic acid]	–	–	–	–	–	–	–	–	–	–	–	–	–	–	0.006 µg/mL (≈ 0.0128 µM)	0.05 µg/mL (≈ 0.107 µM)	0.05 µg/mL (≈ 0.107 µM)	0.20 µg/mL (≈ 0.427 µM)	0.39 µg/mL (≈ 0.833 µM)	≦0.003 μg/ml	MIC (S. aureus, 870307): 0.025 µg/mL (≈ 0.0534 µM); MIC (S. epidermidis, 56500): ≦0.003 μg/ml; MIC (S. flexneli, 2A 5503; S. flexneli, 2A 5503): 0.006 µg/mL (≈ 0.0128 µM); MIC (S. maltophilia, IID-1275): 0.10 µg/mL (≈ 0.213 µM); MIC (S. pneumoniae, J24): ≦0.003 μg/ml; MIC (Ser. marcescens, 10100): 0.20 µg/mL (≈ 0.427 µM); MIC [1]: 0.025 µg/mL (≈ 0.0534 µM); MIC (Str. pyogenes, G-36): 0.006 µg/mL (≈ 0.0128 µM)
Nc1c(F)c(N2CCC(C3(N)CC(F)C3)C2)c(F)c2c1c(=O)c(C(=O)O)cn2[C@@H]1C[C@@H]1F (stereo partly drawn) [Inventive Example 7, 5-Amino-7-[3-(3-amino-1-fluoro-cyclobutan-3-yl)pyrrolidin-1-yl]-6,8-difluoro-1-[2-(S)-fluoro-1-(R)-cyclopropyl]-1,4-dihydro-4-oxoquinoline-3-carboxylic acid]	≤ 0.003 µg/mL	0.025 µg/mL (≈ 0.055 µM)	0.025 µg/mL (≈ 0.055 µM)	0.05 µg/mL (≈ 0.11 µM)	0.1 µg/mL (≈ 0.22 µM)	≤ 0.003 µg/mL	0.006 µg/mL (≈ 0.0132 µM)	≤ 0.003 µg/mL	≤ 0.003 µg/mL	0.05 µg/mL (≈ 0.11 µM)	≤ 0.003 µg/mL	0.05 µg/mL (≈ 0.11 µM)	0.025 µg/mL (≈ 0.055 µM)	≤ 0.003 µg/mL	–	–	–	–	–	–	–
Cc1c(N2CCC(C3(N)CC(F)C3)C2)c(F)c(N)c2c(=O)c(C(=O)O)cn([C@@H]3C[C@@H]3F)c12 (stereo partly drawn) [Inventive Example 1, 5-Amino-7-[3-(3-amino-1-fluorocyclobutan-3-yl)pyrrolidin-1-yl]-6-fluoro-1-[2-(S)-fluoro-1-(R)-cyclopropyl]-8-methyl-1,4-dihydro-4-oxoguinoline-3-carboxylic acid]	–	–	–	–	–	–	–	–	–	–	–	–	–	–	≦0.003 μg/ml	0.025 µg/mL (≈ 0.0555 µM)	0.013 µg/mL (≈ 0.0289 µM)	0.05 µg/mL (≈ 0.111 µM)	0.20 µg/mL (≈ 0.444 µM)	≦0.003 μg/ml	MIC (S. aureus, 870307): 0.013 µg/mL (≈ 0.0289 µM); MIC (S. epidermidis, 56500): ≦0.003 μg/ml; MIC (S. flexneli, 2A 5503; S. flexneli, 2A 5503): ≦0.003 μg/ml; MIC (S. maltophilia, IID-1275): 0.05 µg/mL (≈ 0.111 µM); MIC (S. pneumoniae, J24): ≦0.003 μg/ml; MIC (Ser. marcescens, 10100): 0.10 µg/mL (≈ 0.222 µM); MIC [1]: 0.025 µg/mL (≈ 0.0555 µM); MIC (Str. pyogenes, G-36): ≦0.003 μg/ml
COc1c(N2CCC(C3(N)CC(F)(F)C3)C2)c(F)cc2c(=O)c(C(=O)O)cn([C@@H]3C[C@@H]3F)c12 (stereo partly drawn) [Inventive Example 3, 7-[3-(3-Amino-1,1-difluorocyclobutan-3-yl)pyrrolidin-1-yl]-6-fluoro-1-[2-(S)-fluoro-1-(R)-cyclopropyl]-8-methoxy-1,4-dihydro-4-oxoquinoline-3-carboxylic acid]	0.013 µg/mL (≈ 0.0277 µM)	0.1 µg/mL (≈ 0.213 µM)	0.025 µg/mL (≈ 0.0533 µM)	0.39 µg/mL (≈ 0.831 µM)	0.78 µg/mL (≈ 1.66 µM)	≤ 0.003 µg/mL	0.025 µg/mL (≈ 0.0533 µM)	0.013 µg/mL (≈ 0.0277 µM)	0.025 µg/mL (≈ 0.0533 µM)	0.2 µg/mL (≈ 0.426 µM)	0.006 µg/mL (≈ 0.0128 µM)	0.39 µg/mL (≈ 0.831 µM)	0.025 µg/mL (≈ 0.0533 µM)	0.006 µg/mL (≈ 0.0128 µM)	–	–	–	–	–	–	–
